# Measured values from publication PMC9200763 (Scientific Reports, 2022).
# Like-named read-outs stand apart in the source and are kept apart here.
# Assays:
# [1] = tested on: Allium cepa root tips; test: Allium cepa assay, mitotic index and stages of dividing cells
# Source text: (§1) The frequency of chromosomal aberration was checked following protocol of Babatunde and Bakare[31].
# [2] = tested on: Allium cepa root; test: Allium cepa assay, root growth; conditions: 1 μL/mL
# [3] = tested on: Allium cepa root tips; test: Allium cepa assay, chromosomal aberration test; conditions: 01.00 µL/mL; 72 h
# Source text: as §1
# [4] = tested on: Saccharomyces cerevisiae ATCC-9763; test: Disc diffusion, zone of inhibition
# [5] = tested on: A. niger ATCC-16885; test: Disc diffusion, zone of inhibition
# [6] = tested on: Candida albicans ATCC-66027; test: Disc diffusion, zone of inhibition
# [7] = tested on: Aspergillus fumigatus ATCC-204305; test: Disc diffusion, zone of inhibition
# [8] = tested on: Streptococcus mutans ATCC-25175; test: Disc diffusion, zone of inhibition
# [9] = tested on: B. cereus ATCC-10876; test: Disc diffusion, zone of inhibition; conditions: Bacillus cereus
# [10] = tested on: Bacillus subtilis ATCC-11774; test: Disc diffusion, zone of inhibition
# [11] = tested on: Staphylococcus aureus ATCC-11632; test: Disc diffusion, zone of inhibition
# [12] = tested on: Salmonella typhimurium ATCC-13311; test: Disc diffusion, zone of inhibition; type: cell-based; conditions: Salmonella enterica, S. typhimurium, read-out: Zone of inhibition, standard drug
# Protocol: Ciprofloxacin and fluconazole were used as standard antimicrobial drugs at a concentration (10 μg/disc) for bacterial and fungal strains, respectively.
# MHA was used for culturing the bacteria from bacterial broth and kept at 37 °C for 24 h. The fungal broth was used to prepare fungal culture in PDB and it was kept at 28 °C for 48 h.
# [13] = ABTS assay; type: biochemical; conditions: for ABTS scavenging EC50: analyzed using XLSTAT software
# [14] = parameters: method as in PMID 23181593; conditions: cited from earlier work
# [15] = DPPH free radical scavenging activity; type: biochemical; conditions: for DPPH scavenging EC50: analyzed using XLSTAT software
# [16] = parameters: method as in PMID 23181593; conditions: at 100 μg/mL; cited from earlier work
# [17] = tested on: Aspergillus fumigatus ATCC-204305; test: Broth micro dilution MIC; type: cell-based; conditions: ATCC204305, A. fumigatus
# [18] = Metal chelating activity assay; type: biochemical; conditions: for Metal chelating EC50: analyzed using XLSTAT software
# [19] = tested on: Allium cepa root; conditions: 1 μL/mL
# [20] = tested on: Bacillus subtilis ATCC-11774; test: Broth micro dilution MIC; type: cell-based; conditions: ATCC11774, B. subtilis
# [21] = tested on: BChE; parameters: method as in PMID 19351555; conditions: cited from earlier work
# [22] = target: α-Amylase; test: Antidiabetic activity assay (α-amylase inhibitory); type: biochemical
# [23] = target: T1, egg albumin (Gallus gallus, UniProt P01012); test: Protein egg albumin denaturation assay; type: biochemical
# T1 construct: albumin was extracted from a fresh egg collected from local market of Jorhat, India; from tissue; host or cells: fresh egg (egg white), local market
# [24] = target: Acetylcholinesterase (Homo sapiens, UniProt P22303); test: Acetylcholinesterase inhibitory assay; type: biochemical
# [25] = tested on: Streptococcus mutans ATCC-25175; test: Broth micro dilution MIC; type: cell-based; conditions: ATCC25175, S.mutans
# [26] = tested on: A. parasiticus; conditions: cited from earlier work
# [27] = tested on: AChE; parameters: method as in PMID 19351555; conditions: cited from earlier work
# [28] = tested on: Staphylococcus aureus ATCC-11632; test: Broth micro dilution MIC; type: cell-based; conditions: ATCC11632, S. aureus
# [29] = analyzed using Graph Pad Prism software
# [30] = analyzed using MS-EXCEL software
# [31] = Aspergillus fumigatus, ATCC204305
# T1 sequence (P01012 whole entry): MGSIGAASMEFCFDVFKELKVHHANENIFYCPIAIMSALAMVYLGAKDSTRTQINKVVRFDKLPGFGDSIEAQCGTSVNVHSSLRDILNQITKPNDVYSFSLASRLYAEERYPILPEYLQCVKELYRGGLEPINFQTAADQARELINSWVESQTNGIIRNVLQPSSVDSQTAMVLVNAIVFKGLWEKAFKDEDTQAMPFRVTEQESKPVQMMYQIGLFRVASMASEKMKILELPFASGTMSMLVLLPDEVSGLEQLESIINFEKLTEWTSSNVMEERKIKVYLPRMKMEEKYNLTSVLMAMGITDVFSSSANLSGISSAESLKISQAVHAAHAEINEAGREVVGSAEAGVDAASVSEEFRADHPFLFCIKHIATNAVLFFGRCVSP
# Chain of Acetylcholinesterase (P22303 32-614, species assumed): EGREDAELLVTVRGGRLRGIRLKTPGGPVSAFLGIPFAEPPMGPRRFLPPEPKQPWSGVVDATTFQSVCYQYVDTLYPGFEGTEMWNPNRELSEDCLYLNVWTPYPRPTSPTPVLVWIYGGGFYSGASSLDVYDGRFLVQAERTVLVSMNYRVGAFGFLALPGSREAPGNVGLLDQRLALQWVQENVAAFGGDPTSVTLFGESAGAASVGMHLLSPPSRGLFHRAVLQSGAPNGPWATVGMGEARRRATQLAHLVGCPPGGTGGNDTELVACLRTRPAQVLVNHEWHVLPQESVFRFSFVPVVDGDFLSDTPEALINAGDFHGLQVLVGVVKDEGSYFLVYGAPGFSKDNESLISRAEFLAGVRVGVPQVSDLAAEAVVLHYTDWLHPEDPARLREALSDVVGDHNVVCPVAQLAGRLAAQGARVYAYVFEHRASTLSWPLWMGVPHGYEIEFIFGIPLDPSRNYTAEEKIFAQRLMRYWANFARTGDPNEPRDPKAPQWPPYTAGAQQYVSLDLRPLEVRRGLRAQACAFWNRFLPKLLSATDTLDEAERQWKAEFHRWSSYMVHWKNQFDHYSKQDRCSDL
smiles,measurement,setting,value
"CCOS(C)(=O)=O [EMS, ethyl methanesulphonate]","Metaphase, dividing cells","[1]; Allium cepa root tips, 1 μL/mL",13.27%
same,Mitotic index,"[1]; Allium cepa root tips, 1 μL/mL",1.96%
same,"Prophase, dividing cells","[1]; Allium cepa root tips, 1 μL/mL",86.73%
same,Root length after treatment ± SD,[2]; after treatment,7.31 ± 0.013 cm
same,Root length before treatment ± SD,[2]; before treatment,7.24 ± 0.014 cm
same,Chromosomal aberration: Breakage,[3],15
same,Chromosomal aberration: Bridges,[3],30
same,Chromosomal aberration: Clumped,[3],14
same,Chromosomal aberration: Multipolarity,[3],21
same,Chromosomal aberration: Stickiness,[3],28
same,Total abberations,[3],21.60%
OC(Cn1cncn1)(Cn1cncn1)c1ccc(F)cc1F [fluconazole],"Zone of inhibition, standard drug","[4]; S. cerevisiae, 10 µg/disc",14 ± 0.016 mm
same,zone of inhibition at 10 µg/disc,"[4]; Saccharomyces cerevisiae, ATCC9763, read-out: Zone of inhibition, standard drug",14 mm
same,"Zone of inhibition, standard drug","[5]; A. niger, 10 µg/disc",12 ± 0.013 mm
same,zone of inhibition at 10 µg/disc,"[5]; Aspergillus niger, ATCC16885, read-out: Zone of inhibition, standard drug",12 mm
same,"Zone of inhibition, standard drug","[6]; C. albicans, 10 µg/disc",20 ± 0.014 mm
same,zone of inhibition at 10 µg/disc,"[6]; Candida albicans, ATCC66027, read-out: Zone of inhibition, standard drug",20 mm
same,"Zone of inhibition, standard drug","[7]; A. fumigatus, 10 µg/disc",16 ± 0.011 mm
same,zone of inhibition at 10 µg/disc,"[7]; Aspergillus fumigatus, ATCC204305, read-out: Zone of inhibition, standard drug",16 mm
"O=C(O)c1cn(C2CC2)c2cc(N3CCNCC3)c(F)cc2c1=O [ciprofloxacin, Ciprofloxacin]",zone of inhibition at 10 µg/disc,"[8]; ATCC25175, read-out: Zone of inhibition, standard drug",7 ± 0.015 mm
same,zone of inhibition at 10 µg/disc,"[9]; ATCC10876, read-out: Zone of inhibition, standard drug",15 ± 0.013 mm
same,zone of inhibition at 10 µg/disc,"[10]; ATCC11774, read-out: Zone of inhibition, standard drug",16 ± 0.015 mm
same,zone of inhibition at 10 µg/disc,"[11]; ATCC11632, read-out: Zone of inhibition, standard drug",19 ± 0.017 mm
same,zone of inhibition at 10 µg/disc,[12],21 ± 0.015 mm
O=C1O[C@H]([C@@H](O)CO)C(O)=C1O [Ascorbic acid],ABTS scavenging IC50,[13]; [29],39.31 ± 0.84 µg/mL
same,ABTS scavenging IC50,[13]; [30],17.61 ± 0.012 µg/mL
same,ABTS scavenging EC50,[13],19.54 ± 0.121 µg/mL
same,DPPH scavenging activity,[14]; at 1000 μg/mL,99.65%
same,DPPH IC50,[14],5.15 µg/mL
same,DPPH scavenging IC50,[15]; [29],0.60 ± 0.121 µg/mL
same,DPPH scavenging IC50,[15]; [30],17.27 ± 0.004 µg/mL
same,DPPH scavenging EC50,[15],17.55 ± 0.056 µg/mL
same,Reducing power,[16],0.85
"C/C=C/c1ccc(OC)cc1 [Anethole standard, anethole]",MIC,[17],65 µg/mL
same,zone of inhibition at 50 µg/mL,[8]; ATCC25175,12 mm
same,zone of inhibition at 100 µg/mL,[8]; ATCC25175,16 mm
same,zone of inhibition at 250 µg/mL,[8]; ATCC25175,18 mm
same,zone of inhibition at 500 µg/mL,[8]; ATCC25175,23 mm
same,ABTS scavenging IC50,[13]; [29],34.9 ± 0.004 µg/mL
same,ABTS scavenging IC50,[13]; [30],9.26 ± 0.002 µg/mL
same,ABTS scavenging EC50,[13],9.48 ± 0.048 µg/mL
same,Metal chelating IC50,[18]; [29],12.15 ± 0.032 µg/mL
same,Metal chelating IC50,[18]; [30],31.02 ± 0.018 µg/mL
same,Metal chelating EC50,[18],29.54 ± 0.032 µg/mL
same,zone of inhibition at 500 µg/mL,"[4]; Saccharomyces cerevisiae, ATCC9763",16 mm
same,Genotoxic effect (in words),[1],no genotoxic effect
same,"Anaphase, dividing cells","[1]; Allium cepa, 1 μL/mL",13.51%
same,"Metaphase, dividing cells","[1]; Allium cepa, 1 μL/mL",18.92%
same,"Prophase, dividing cells","[1]; Allium cepa, 1 μL/mL",59.46%
same,"Telophase, dividing cells","[1]; Allium cepa, 1 μL/mL",8.10%
same,Root length before treatment ± SD,[19]; 0 h,7.71 ± 0.016 cm
same,Root length after treatment ± SD,[19]; 72 h,8.36 ± 0.009 cm
same,MIC,[20],90 µg/mL
same,BChE inhibitory IC50,[21],209.60 µg/mL
same,zone of inhibition at 250 µg/mL,[9]; ATCC10876,13 mm
same,zone of inhibition at 500 µg/mL,[9]; ATCC10876,16 mm
same,zone of inhibition at 100 µg/mL,[10]; ATCC11774,8 mm
same,zone of inhibition at 250 µg/mL,[10]; ATCC11774,11 mm
same,zone of inhibition at 500 µg/mL,[10]; ATCC11774,13 mm
same,zone of inhibition at 250 µg/mL,"[5]; Aspergillus niger, ATCC16885",16 mm
same,zone of inhibition at 500 µg/mL,"[5]; Aspergillus niger, ATCC16885",21 mm
same,α-Amylase inhibitory IC50,[22]; [29],13.08 ± 0.016 µg/mL
same,α-Amylase inhibitory IC50,[22]; [30],22.16 ± 0.12 µg/mL
same,α-Amylase inhibitory EC50,[22]; analyzed using XLSTAT software,21.75 ± 0.008 µg/mL
same,zone of inhibition at 500 µg/mL,"[6]; Candida albicans, ATCC66027",19 mm
same,DPPH scavenging IC50,[15]; [29],0.58 ± 0.048 µg/mL
same,DPPH scavenging IC50,[15]; [30],10.94 ± 0.026 µg/mL
same,DPPH scavenging EC50,[15],8.69 ± 0.058 µg/mL
same,EC50,[23],132 µM
same,IC50,"[23]; Protein denaturation IC50, analyzed using Graph Pad Prism software",1380 µM
same,IC50,"[23]; Protein denaturation IC50, analyzed using MS-EXCEL software",130 µM
same,zone of inhibition at 100 µg/mL,[11]; ATCC11632,8 mm
same,zone of inhibition at 250 µg/mL,[11]; ATCC11632,10 mm
same,zone of inhibition at 500 µg/mL,[11]; ATCC11632,14 mm
same,EC50,[24],208 µM
same,IC50,"[24]; Acetylcholinesterase inhibitory IC50, analyzed using Graph Pad Prism software",145 µM
same,IC50,"[24]; Acetylcholinesterase inhibitory IC50, analyzed using MS-EXCEL software",228 µM
same,MIC,[25],15 µg/mL
same,Concentration that inhibits completely the growth of A. parasiticus,[26],400 µg/mL
same,zone of inhibition at 250 µg/mL,[7]; [31],14 mm
same,zone of inhibition at 500 µg/mL,[7]; [31],18 mm
same,AChE inhibitory IC50,[27],134.70 µg/mL
same,MIC,[28],95 µg/mL
"O=C(O)CN(CCN(CC(=O)O)CC(=O)O)CC(=O)O [EDTA, ethylenediamminetetracetic acid]",Metal chelating IC50,[18]; [29],12.11 ± 0.002 µg/mL
same,Metal chelating IC50,[18]; [30],29.92 ± 0.002 µg/mL
same,Metal chelating EC50,[18],29.33 ± 0.064 µg/mL
